Columns and labels:
FGFR3 [1] = test: biochemical; assay type: biochemical
FGFR3 [2] = target: FGFR3 (Homo sapiens, UniProt P22607); test: biochemical; assay type: biochemical; conditions: FGFR3-IC50
FGFR2 [3] = test: biochemical
FGFR2 [4] = target: FGFR2 (Homo sapiens, UniProt P21802); test: biochemical; conditions: FGFR2-IC50
FGFR1 [5] = test: Z'-LYTE kinase enzyme inhibition assay, FGFR1; assay type: biochemical; conditions: for FGFR1-SI: selectivity index IC50/IC50, lowest IC50 of the compound = 1
FGFR1 [6] = target: FGFR1 (Homo sapiens, UniProt P11362); test: Z'-LYTE kinase enzyme inhibition assay, FGFR1; assay type: biochemical; conditions: FGFR1-IC50
NIH-3T3 cells = test: WST-1 cytotoxicity assay; assay type: cell-based, mouse; conditions: Mus musculus, NIH3T3, 48 h, read-out: NIH-3T3 Cells IC50
WST-1 cytotoxicity assay = assay type: cell-based, mouse; conditions: mouse, NIH-3T3 cells (mouse embryonic fibroblasts)
FGFR4 = FGFR4 (Homo sapiens, UniProt P22455); test: biochemical; assay type: biochemical
Chain of FGFR4 (P22455 22-802): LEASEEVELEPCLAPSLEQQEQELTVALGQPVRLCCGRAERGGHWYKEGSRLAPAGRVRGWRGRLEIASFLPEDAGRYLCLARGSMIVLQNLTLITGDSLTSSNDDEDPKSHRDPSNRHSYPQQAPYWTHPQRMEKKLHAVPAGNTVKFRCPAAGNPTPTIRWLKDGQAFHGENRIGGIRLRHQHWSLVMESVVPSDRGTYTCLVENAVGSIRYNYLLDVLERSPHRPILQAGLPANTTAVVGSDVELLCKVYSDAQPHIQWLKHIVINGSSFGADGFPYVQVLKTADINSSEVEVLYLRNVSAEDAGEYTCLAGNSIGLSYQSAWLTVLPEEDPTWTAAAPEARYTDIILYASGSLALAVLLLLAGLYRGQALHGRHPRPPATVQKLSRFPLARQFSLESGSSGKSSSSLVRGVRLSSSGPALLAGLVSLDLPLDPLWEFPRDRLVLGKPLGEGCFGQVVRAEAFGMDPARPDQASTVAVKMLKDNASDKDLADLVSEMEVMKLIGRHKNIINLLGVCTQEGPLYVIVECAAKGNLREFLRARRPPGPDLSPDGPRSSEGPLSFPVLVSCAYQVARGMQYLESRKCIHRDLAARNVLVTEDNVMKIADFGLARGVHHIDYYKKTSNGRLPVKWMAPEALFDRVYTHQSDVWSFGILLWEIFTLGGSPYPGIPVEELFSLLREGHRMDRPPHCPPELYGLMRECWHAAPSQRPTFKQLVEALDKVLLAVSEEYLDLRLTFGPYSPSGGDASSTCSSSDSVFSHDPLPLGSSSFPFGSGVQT

Chain of FGFR1 (Homo sapiens, UniProt P11362) (P11362 22-822): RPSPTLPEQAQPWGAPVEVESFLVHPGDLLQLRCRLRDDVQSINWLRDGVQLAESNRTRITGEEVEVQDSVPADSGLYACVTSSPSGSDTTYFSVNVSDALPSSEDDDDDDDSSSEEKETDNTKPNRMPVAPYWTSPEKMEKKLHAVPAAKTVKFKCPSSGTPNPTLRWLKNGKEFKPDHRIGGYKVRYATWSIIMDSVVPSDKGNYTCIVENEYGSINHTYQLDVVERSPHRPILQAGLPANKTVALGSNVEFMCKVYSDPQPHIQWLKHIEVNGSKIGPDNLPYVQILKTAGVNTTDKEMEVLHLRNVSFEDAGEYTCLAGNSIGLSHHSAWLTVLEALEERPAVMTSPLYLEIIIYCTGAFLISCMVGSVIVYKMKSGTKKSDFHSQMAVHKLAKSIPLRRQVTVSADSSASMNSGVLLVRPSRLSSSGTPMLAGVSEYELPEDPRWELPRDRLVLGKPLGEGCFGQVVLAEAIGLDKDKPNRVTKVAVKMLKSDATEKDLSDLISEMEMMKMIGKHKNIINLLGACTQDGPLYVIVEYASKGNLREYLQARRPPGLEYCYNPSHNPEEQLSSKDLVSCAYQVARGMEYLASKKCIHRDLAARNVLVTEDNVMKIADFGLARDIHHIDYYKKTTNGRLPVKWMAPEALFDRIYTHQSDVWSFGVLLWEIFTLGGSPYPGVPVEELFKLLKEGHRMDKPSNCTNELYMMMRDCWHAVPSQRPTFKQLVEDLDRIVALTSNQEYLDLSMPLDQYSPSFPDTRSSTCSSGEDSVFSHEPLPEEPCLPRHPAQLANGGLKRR
Chain of FGFR3 (Homo sapiens, UniProt P22607) (P22607 23-806): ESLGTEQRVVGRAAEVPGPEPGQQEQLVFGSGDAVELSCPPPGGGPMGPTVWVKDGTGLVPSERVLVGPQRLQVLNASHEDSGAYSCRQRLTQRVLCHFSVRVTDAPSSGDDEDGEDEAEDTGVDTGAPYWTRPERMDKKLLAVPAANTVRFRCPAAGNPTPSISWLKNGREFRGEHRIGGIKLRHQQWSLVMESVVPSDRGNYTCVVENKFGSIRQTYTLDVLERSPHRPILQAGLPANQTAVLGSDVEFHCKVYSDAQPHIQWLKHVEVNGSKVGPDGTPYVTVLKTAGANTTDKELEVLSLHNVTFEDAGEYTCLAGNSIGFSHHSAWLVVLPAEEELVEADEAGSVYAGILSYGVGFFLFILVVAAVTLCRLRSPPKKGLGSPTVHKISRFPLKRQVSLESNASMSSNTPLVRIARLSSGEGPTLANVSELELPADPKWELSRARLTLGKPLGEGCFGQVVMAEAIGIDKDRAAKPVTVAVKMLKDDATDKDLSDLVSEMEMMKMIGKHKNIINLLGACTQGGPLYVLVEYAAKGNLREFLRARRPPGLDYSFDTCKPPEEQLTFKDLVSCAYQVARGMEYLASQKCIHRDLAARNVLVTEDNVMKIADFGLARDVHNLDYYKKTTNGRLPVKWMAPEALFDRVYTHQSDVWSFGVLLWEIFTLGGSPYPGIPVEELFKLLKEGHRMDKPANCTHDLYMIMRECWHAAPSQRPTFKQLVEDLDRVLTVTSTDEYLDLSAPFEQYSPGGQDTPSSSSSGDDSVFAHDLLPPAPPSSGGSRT
Chain of FGFR2 (Homo sapiens, UniProt P21802) (P21802 22-821): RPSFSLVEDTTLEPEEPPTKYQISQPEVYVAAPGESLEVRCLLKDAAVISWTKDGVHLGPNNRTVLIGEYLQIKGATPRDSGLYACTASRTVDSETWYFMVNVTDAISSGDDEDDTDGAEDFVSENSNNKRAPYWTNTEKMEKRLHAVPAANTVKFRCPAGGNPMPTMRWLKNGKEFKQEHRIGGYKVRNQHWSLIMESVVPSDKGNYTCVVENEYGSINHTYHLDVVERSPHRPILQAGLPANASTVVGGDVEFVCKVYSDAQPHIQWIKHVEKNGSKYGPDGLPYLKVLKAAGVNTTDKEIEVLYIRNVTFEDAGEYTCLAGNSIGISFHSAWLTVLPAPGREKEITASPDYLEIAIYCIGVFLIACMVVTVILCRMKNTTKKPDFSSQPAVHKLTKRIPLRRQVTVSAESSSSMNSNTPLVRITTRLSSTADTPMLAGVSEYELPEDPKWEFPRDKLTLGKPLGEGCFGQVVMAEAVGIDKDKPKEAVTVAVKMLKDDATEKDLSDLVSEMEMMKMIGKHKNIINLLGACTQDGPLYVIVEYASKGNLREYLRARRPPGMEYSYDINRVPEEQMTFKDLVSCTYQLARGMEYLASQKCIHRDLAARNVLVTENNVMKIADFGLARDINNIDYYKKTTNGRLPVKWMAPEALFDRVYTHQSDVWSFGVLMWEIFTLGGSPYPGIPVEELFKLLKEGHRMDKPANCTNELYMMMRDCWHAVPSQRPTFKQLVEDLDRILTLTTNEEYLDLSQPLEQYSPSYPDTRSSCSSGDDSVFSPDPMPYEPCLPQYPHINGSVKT

Row | IC50 (FGFR3 [2]) | IC50 (FGFR2 [4]) | FGFR selectivity (in words) (FGFR1 [5]; among FGFR1-4) | FGFR1-SI (FGFR1 [5]) | IC50 (FGFR1 [6]) | FGFR4-SI (FGFR4) | IC50 (FGFR4) | Compound | FGFR3-SI (FGFR3 [1]) | FGFR2-SI (FGFR2 [3]) | IC50 (NIH-3T3 cells) | IC50 at 48 h (WST-1 cytotoxicity assay)
1 | 17.1 ± 0.294 µM | 1.02 ± 0.0673 µM | selectivity to FGFR1 | 1 | 0.007 ± 0.000206 µM | 1285.449 | 8.99 ± 0.314 µM | CN1CCN(c2ccc(/C=C3/C(=O)Nc4ccc(-c5ccc6cc(O)ccc6c5)cc43)cc2)CC1 [Compound A13, (E)-5-(6-hydroxynaphthalen-2-yl)-3-[4-(4-methylpiperazin-1-yl)benzylidene]indolin-2-one] | 2442.824 | 146.083 | 30.1 ± 3.23 µM | > 1 µM
2 | 0.131 ± 0.00423 µM |  |  | 1 | 0.012 ± 0.000736 µM |  | 9.24 ± 0.265 µM | O=CN1CCN(c2ccc(/C=C3/C(=O)Nc4ccc(-c5ccc(C(=O)N6CCOCC6)cc5)cc43)cc2)CC1 [Compound A27, (E)-4-{4-{ {5-[4-(morpholine-4-carbonyl)phenyl]-2-oxoindolin-3-ylidene}methyl}phenyl}piperazine-1-carbaldehyde] | 10.962 |  | 1.23 ± 0.467 µM | > 1 µM
